{
  "source": "PubChem BioAssay AID488958",
  "about": "(The Scripps Research Institute Molecular Screening Center, 2010)",
  "note": "Activity calls are given as the source filed them. No rule for the calls is given here.",
  "data": [
    {"target": "3C-like protease (Infectious bronchitis virus, as filed; assay for SARS-CoV 3CLpro)", "assay": "SARS 3CLpro protease inhibition IC50 – biochemical, fluorescence, dose response, late-stage follow-up (AID 488958)", "conditions": "recombinant 3CLpro, fluorogenic peptide cleavage", "values": [
      {"compound": "CC(=O)Nc1ccc(N(C(=O)Cn2nnc3ccccc32)C(C(=O)NC(C)(C)C)c2cccc(F)c2)cc1", "note": "(stereo unspecified)", "IC50": "6.3 µM"},
      {"compound": "CC(=O)Nc1ccc(N(C(=O)Cn2nnc3ccccc32)C(C(=O)NCc2ccccc2)c2cccc(F)c2)cc1", "note": "(stereo unspecified)", "IC50": "2.9 µM"},
      {"compound": "CC(C)(C)NC(=O)C(c1cccnc1)N(C(=O)c1ccc(Cl)o1)c1ccc(C(C)(C)C)cc1", "note": "(stereo unspecified)", "IC50": "5.2 µM"},
      {"compound": "CC(C)(C)NC(=O)C(c1cncnc1)N(C(=O)c1cnc[nH]1)c1ccc(C(C)(C)C)cc1", "note": "(stereo unspecified)", "IC50": "inactive"},
      {"compound": "CC(C)(C)NC(=O)C(c1cccnc1)N(C(=O)c1ncco1)c1ccc(C(C)(C)C)cc1", "note": "(stereo unspecified)", "IC50": "inactive"},
      {"compound": "CCC(C)c1ccc(N(C(=O)c2ccco2)[C@H](C(=O)NC(C)(C)C)c2cccnc2)cc1", "note": "(stereo partly specified)", "IC50": "2.3 µM"}
    ]}
  ]
}
